The record followed here is ChEMBL document CHEMBL1155312, “In vivo evaluation of diaminodiphenyls: anticonvulsant agents with minimal acute neurotoxicity” (Bioorg Med Chem Lett, 2009).

Data set [1] relates to Mus musculus. The data set can be described thus: Anticonvulsant activity in CF1 albino mouse assessed as inhibition of maximal electric shock-induced seizure at 100 mg/kg, ip after 4 hrs. As to conditions: route intraperitoneal. It is filed as functional.
The subject of data set [2] is Rattus norvegicus. The data set can be described thus: Anticonvulsant activity in Sprague-Dawley rat assessed as inhibition of maximal electric shock-induced seizure at 30 mg/kg, po after 0.5 hrs. The data set is classed as functional.
The test system of data set [3] is Rattus norvegicus. The data set can be described thus: Anticonvulsant activity in Sprague-Dawley rat assessed as inhibition of maximal electric shock-induced seizure at 30 mg/kg, po after 0.25 hrs. The data set is classed as functional.
Data set [4] concerns Rattus norvegicus. Briefly: Anticonvulsant activity in Sprague-Dawley rat assessed as inhibition of maximal electric shock-induced seizure at 30 mg/kg, po after 2 hrs. It is filed as functional.
Data set [5] concerns Rattus norvegicus. The data set can be described thus: Anticonvulsant activity in Sprague-Dawley rat assessed as inhibition of maximal electric shock-induced seizure at 30 mg/kg, po after 4 hrs. The data set is classed as functional.
The subject of data set [6] is Mus musculus. The data set can be described thus: Anticonvulsant activity in CF1 albino mouse assessed as inhibition of maximal electric shock-induced seizure at 30 mg/kg, ip after 0.5 hrs. It is filed as functional. The following applies: route intraperitoneal.
Data set [7] has as its system Mus musculus. The data set can be described thus: Anticonvulsant activity in CF1 albino mouse assessed as inhibition of maximal electric shock-induced seizure at 100 mg/kg, ip after 0.5 hrs. The data set is classed as functional. As to conditions: route intraperitoneal.
The test system of data set [8] is Mus musculus. The data set can be described thus: Anticonvulsant activity in CF1 albino mouse assessed as inhibition of maximal electric shock-induced seizure at 30 mg/kg, ip after 4 hrs. It is filed as functional. As to conditions: route intraperitoneal.
The test system of data set [9] is Mus musculus. Briefly: Anticonvulsant activity in CF1 albino mouse assessed as inhibition of maximal electric shock-induced seizure at 300 mg/kg, ip after 4 hrs. The data set is classed as functional. As to conditions: route intraperitoneal.
Data set [10] deals with Rattus norvegicus. The data set can be described thus: Neurotoxicity in Sprague-Dawley rat at 250 mg/kg, po by positional sense and gait and stance test. As to conditions: in vivo. It is filed as toxicity, organism-based. Also on record: dose 250 mg/kg, route oral.
The subject of data set [11] is Mus musculus. Briefly: Neurotoxicity in CF1 albino mouse at 100 mg/kg, ip by rotarod test. It is filed as toxicity, organism-based. Details: dose 100 mg/kg, route intraperitoneal. The following applies: in vivo.
Data set [12] relates to Rattus norvegicus. The data set can be described thus: Anticonvulsant activity in Sprague-Dawley rat assessed as inhibition of maximal electric shock-induced seizure at 30 mg/kg, po after 1 hrs. The data set is classed as functional.
Data set [13] deals with Mus musculus. Briefly: Anticonvulsant activity in CF1 albino mouse assessed as inhibition of maximal electric shock-induced seizure at 300 mg/kg, ip after 0.5 hrs. The data set is classed as functional. The following applies: route intraperitoneal.
In data set [14] the test system is Mus musculus. The data set can be described thus: Anticonvulsant activity in CF1 albino mouse assessed as inhibition of minimal clonic seizure at 80 mg/kg, ip after 0.5 hrs. The data set is classed as functional. As to conditions: route intraperitoneal.
The subject of data set [15] is Mus musculus. Briefly: Anticonvulsant activity in CF1 albino mouse assessed as inhibition of minimal clonic seizure at 30 mg/kg, ip after 0.25 hrs. It is filed as functional. As to conditions: route intraperitoneal.
Data set [16] has as its system Rattus norvegicus. Briefly: Anticonvulsant activity against kindle motor-induced seizure in rat assessed as after discharge duration at 100 mg/kg, ip after 15 mins by hippocampal kindling screen test. The data set is classed as functional, Hippocampus. The following applies: route intraperitoneal.
The test system of data set [17] is Mus musculus. The data set can be described thus: Anticonvulsant activity in CF1 albino mouse assessed as inhibition of minimal clonic seizure at 30 mg/kg, ip after 2 hrs. The data set is classed as functional. As to conditions: route intraperitoneal.
In data set [18] the test system is Mus musculus. The data set can be described thus: Anticonvulsant activity in CF1 albino mouse assessed as inhibition of minimal clonic seizure at 80 mg/kg, ip after 4 hrs. It is filed as functional. As to conditions: route intraperitoneal.
In data set [19] the test system is Mus musculus. The data set can be described thus: Anticonvulsant activity in CF1 albino mouse assessed as inhibition of minimal clonic seizure at 80 mg/kg, ip after 2 hrs. The data set is classed as functional. The following applies: route intraperitoneal.
Data set [20] relates to Mus musculus. The data set can be described thus: Anticonvulsant activity in CF1 albino mouse assessed as inhibition of minimal clonic seizure at 100 mg/kg, ip after 0.5 hrs. It is filed as functional. The following applies: route intraperitoneal.
In data set [21] the test system is Rattus norvegicus. Briefly: Anticonvulsant activity against kindle motor-induced seizure in rat assessed as after discharge duration at 100 mg/kg, ip after 165 mins by hippocampal kindling screen test. It is filed as functional, Hippocampus. As to conditions: route intraperitoneal.
The subject of data set [22] is Rattus norvegicus. Briefly: Anticonvulsant activity against kindle motor-induced seizure in rat assessed as after discharge duration at 100 mg/kg, ip after 105 mins by hippocampal kindling screen test. It is filed as functional, Hippocampus. As to conditions: route intraperitoneal.
The test system of data set [23] is Rattus norvegicus. The data set can be described thus: Anticonvulsant activity against kindle motor-induced seizure in rat assessed as after discharge duration at 100 mg/kg, ip after 135 mins by hippocampal kindling screen test. It is filed as functional, Hippocampus. The following applies: route intraperitoneal.
Data set [24] concerns Mus musculus. Briefly: Anticonvulsant activity in CF1 albino mouse assessed as inhibition of minimal clonic seizure at 30 mg/kg, ip after 1 hrs. The data set is classed as functional. As to conditions: route intraperitoneal.
Data set [25] relates to Rattus norvegicus. The data set can be described thus: Anticonvulsant activity against kindle motor-induced seizure in rat assessed as after discharge duration at 100 mg/kg, ip after 45 mins by hippocampal kindling screen test. As to conditions: route intraperitoneal. It is filed as functional, Hippocampus.
The test system of data set [26] is Rattus norvegicus. Briefly: Anticonvulsant activity against kindle motor-induced seizure in rat assessed as after discharge duration at 100 mg/kg, ip after 225 mins by hippocampal kindling screen test. It is filed as functional, Hippocampus. As to conditions: route intraperitoneal.
The test system of data set [27] is Mus musculus. The data set can be described thus: Anticonvulsant activity in CF1 albino mouse assessed as inhibition of minimal clonic seizure at 100 mg/kg, ip after 4 hrs. The following applies: route intraperitoneal. It is filed as functional.
For data set [28], the system named is Mus musculus. Briefly: Anticonvulsant activity in CF1 albino mouse assessed as inhibition of minimal clonic seizure at 80 mg/kg, ip after 0.25 hrs. The data set is classed as functional. As to conditions: route intraperitoneal.
Data set [29] relates to Mus musculus. Briefly: Anticonvulsant activity in CF1 albino mouse assessed as inhibition of minimal clonic seizure at 100 mg/kg, ip after 0.25 hrs. The following applies: route intraperitoneal. The data set is classed as functional.
Data set [30] relates to Mus musculus. The data set can be described thus: Anticonvulsant activity in CF1 albino mouse assessed as inhibition of minimal clonic seizure at 100 mg/kg, ip after 2 hrs. The following applies: route intraperitoneal. The data set is classed as functional.
The subject of data set [31] is Mus musculus. Briefly: Anticonvulsant activity in CF1 albino mouse assessed as inhibition of minimal clonic seizure at 100 mg/kg, ip after 1 hrs. The data set is classed as functional. The following applies: route intraperitoneal.
The test system of data set [32] is Rattus norvegicus. Briefly: Anticonvulsant activity against kindle motor-induced seizure in rat assessed as after discharge duration at 100 mg/kg, ip after 75 mins by hippocampal kindling screen test. As to conditions: route intraperitoneal. The data set is classed as functional, Hippocampus.
The test system of data set [33] is Rattus norvegicus. Briefly: Anticonvulsant activity against kindle motor-induced seizure in rat assessed as after discharge duration at 100 mg/kg, ip after 255 mins by hippocampal kindling screen test. It is filed as functional, Hippocampus. As to conditions: route intraperitoneal.
Data set [34] concerns Mus musculus. The data set can be described thus: Anticonvulsant activity in CF1 albino mouse assessed as inhibition of minimal clonic seizure at 80 mg/kg, ip after 1 hrs. The data set is classed as functional. The following applies: route intraperitoneal.
Data set [35] concerns Mus musculus. Briefly: Neurotoxicity in CF1 albino mouse at 300 mg/kg, ip by rotarod test after 4 hrs. It is filed as toxicity, organism-based. Details: dose 300 mg/kg, route intraperitoneal. The following applies: in vivo. For orientation: The rotarod test checks motor coordination on a turning rod.
The test system of data set [36] is Rattus norvegicus. The data set can be described thus: Anticonvulsant activity against kindle motor-induced seizure in rat assessed as after discharge duration at 100 mg/kg, ip after 195 mins by hippocampal kindling screen test. The data set is classed as functional, Hippocampus. The following applies: route intraperitoneal.
Data set [37] has as its system Mus musculus. Briefly: Anticonvulsant activity in CF1 albino mouse assessed as inhibition of minimal clonic seizure at 30 mg/kg, ip after 0.5 hrs. The data set is classed as functional. As to conditions: route intraperitoneal.
Data set [38] has as its system Rattus norvegicus. The data set can be described thus: Neurotoxicity in Sprague-Dawley rat at 30 mg/kg, po by positional sense and gait and stance test. The data set is classed as toxicity, organism-based. As to conditions: in vivo. Also on record: dose 30 mg/kg, route oral.

The structures appear in SMILES notation.

Broadly, the inhibition in vivo is how much of the control response was suppressed. Take `Nc1ccc(Nc2cccc(N)c2)cc1`: the inhibition in vivo at 100 mg/kg in data set [1] and in [7] was 100% in each case. For the same compound, the inhibition in vivo at 30 mg/kg in data set [2] came out at 50%; in data set [3], 0%; in [4], 50%; in data set [5] it was 50%; in [6], 0%; in [8], 0%. The inhibition in vivo at 30 mg/kg in data set [12] was 75%. The inhibition in vivo at 300 mg/kg in data set [9] and in data set [13] was 100% throughout. Moreover, the Activity result in [10] and in data set [11] was “Non-toxic” throughout.

Consider `Nc1ccc(Sc2ccc(N)cc2)cc1` [4,4'-THIODIANILINE], for which the inhibition in vivo at 80 mg/kg in data set [14] came to 100%; in [18], 0%; in data set [19], 75%; in data set [28], 100%; in [34], 100%. The inhibition in vivo at 100 mg/kg in [1] is 100%; in [7], 66%; in data set [20], 100%; in [27] it was 0%; in [29], 100%; in [30], 100%. Also, the inhibition in vivo at 100 mg/kg in [31] came to 100%. For the same compound, the inhibition in vivo at 30 mg/kg in data set [2] is 100%; in data set [15], 0%; in data set [3], 100%; in [4], 100%; in data set [17], 25%; in data set [5], 100%. The inhibition in vivo at 30 mg/kg in data set [6] came to 0%; in data set [8], 0%; in [24] it was 25%; in [12] it was 100%; in data set [37], 25%. Further, the Activity is 19.14 s in data set [16]; 57.43 s in data set [21]; 33.29 s in data set [22]; 34.71 s in [23]; 25.29 s in [25]; 71.29 s in data set [26]. In addition, the Activity is recorded as 24.86 s in data set [32], 65.43 s in [33], “Non-toxic” in data set [35] and 55.29 s in data set [36]. Moreover, the inhibition in vivo at 300 mg/kg in data set [9] and in [13] was 100% throughout.

Consider `Nc1ccc(Oc2ccc(N)cc2)cc1`, for which the inhibition in vivo at 100 mg/kg in data set [1] and in data set [7] was 100% each time. In addition, the inhibition in vivo at 30 mg/kg is 100% in [2]; 100% in data set [3]; 75% in [4]; 100% in data set [5]; 0% in data set [6]; 0% in data set [8]. Further, the inhibition in vivo at 30 mg/kg in data set [12] was determined as 75%. Moreover, in data set [38], the Activity entry is on record as “Non-toxic”. Also, the inhibition in vivo at 300 mg/kg in data set [9] and in [13] was 100% each time.
